Measurements published in the NIST ThermoML archive (doi:10.1016/j.jct.2004.08.003).

Columns and labels:
[1] = xn = mol fraction of the nth substance listed; conditions: 101.3 kPa, Liquid
[2] = relative permittivity at various frequencies (dimensionless); xn = mol fraction of the nth substance listed; conditions: 101.3 kPa, Liquid, Frequency=1 MHz, HP4284A LCR Meter with HP16452A measuring cell

COCCOCCOCCOC [2,5,8,11-tetraoxadodecane] + CCCCCCCCCCCC
Conditions	mass density, [1] [kg/m3]	relative permittivity, [2]
288.15 K, x1 = 0.0983	769.24	–
288.15 K, x1 = 0.0993	–	2.3
288.15 K, x1 = 0.1981	–	2.61
288.15 K, x1 = 0.2007	788.2	–
288.15 K, x1 = 0.2498	–	2.79
288.15 K, x1 = 0.2526	798.35	–
288.15 K, x1 = 0.2974	807.41	–
288.15 K, x1 = 0.3051	–	3.01
288.15 K, x1 = 0.396	–	3.4
288.15 K, x1 = 0.398	828.67	–
288.15 K, x1 = 0.5011	–	3.92
288.15 K, x1 = 0.5097	853.81	–
288.15 K, x1 = 0.5986	875.06	–
288.15 K, x1 = 0.5991	–	4.51
288.15 K, x1 = 0.6981	900.28	–
288.15 K, x1 = 0.7114	–	5.28
288.15 K, x1 = 0.7994	–	5.98
288.15 K, x1 = 0.8012	928.25	–
288.15 K, x1 = 0.8996	–	6.87
288.15 K, x1 = 0.9009	957.48	–
288.15 K, x1 = 0.9504	–	7.37
288.15 K, x1 = 0.951	973.13	–
293.15 K, x1 = 0.0989	765.55	–
293.15 K, x1 = 0.0992	–	2.3
293.15 K, x1 = 0.1969	783.56	–
293.15 K, x1 = 0.2005	–	2.6
293.15 K, x1 = 0.2488	793.6	–
293.15 K, x1 = 0.252	–	2.78
293.15 K, x1 = 0.2988	–	2.95
293.15 K, x1 = 0.3069	805.3	–
293.15 K, x1 = 0.3978	–	3.37
293.15 K, x1 = 0.4006	825.05	–
293.15 K, x1 = 0.5003	–	3.87
293.15 K, x1 = 0.5006	847.38	–
293.15 K, x1 = 0.5981	870.51	–
293.15 K, x1 = 0.6016	–	4.45
293.15 K, x1 = 0.698	–	5.08
293.15 K, x1 = 0.6989	895.89	–
293.15 K, x1 = 0.7963	922.13	–
293.15 K, x1 = 0.7995	–	5.85
293.15 K, x1 = 0.8997	–	6.73
293.15 K, x1 = 0.9032	953.28	–
293.15 K, x1 = 0.9492	–	7.2
293.15 K, x1 = 0.95	967.84	–
298.15 K, x1 = 0.088	–	2.25
298.15 K, x1 = 0.0984	761.73	–
298.15 K, x1 = 0.1995	780.21	–
298.15 K, x1 = 0.2006	–	2.58
298.15 K, x1 = 0.2494	–	2.74
298.15 K, x1 = 0.2511	790.16	–
298.15 K, x1 = 0.3005	800.04	–
298.15 K, x1 = 0.3046	–	2.95
298.15 K, x1 = 0.3988	820.63	–
298.15 K, x1 = 0.4127	–	3.4
298.15 K, x1 = 0.496	–	3.8
298.15 K, x1 = 0.4974	842.53	–
298.15 K, x1 = 0.5972	–	4.35
298.15 K, x1 = 0.598	866.25	–
298.15 K, x1 = 0.6987	–	4.98
298.15 K, x1 = 0.6997	891.79	–
298.15 K, x1 = 0.7954	917.48	–
298.15 K, x1 = 0.8028	–	5.76
298.15 K, x1 = 0.9014	948.24	–
298.15 K, x1 = 0.9022	–	6.61
298.15 K, x1 = 0.9504	–	7.07
298.15 K, x1 = 0.9513	963.73	–
303.15 K, x1 = 0.0987	758.05	–
303.15 K, x1 = 0.099	–	2.26
303.15 K, x1 = 0.1997	–	2.56
303.15 K, x1 = 0.2033	777	–
303.15 K, x1 = 0.2498	785.94	–
303.15 K, x1 = 0.2517	–	2.73
303.15 K, x1 = 0.2994	795.76	2.9
303.15 K, x1 = 0.3949	815.57	–
303.15 K, x1 = 0.3976	–	3.3
303.15 K, x1 = 0.4991	–	3.76
303.15 K, x1 = 0.5002	838.84	–
303.15 K, x1 = 0.5969	–	4.29
303.15 K, x1 = 0.5996	862.24	–
303.15 K, x1 = 0.6979	886.84	–
303.15 K, x1 = 0.699	–	4.94
303.15 K, x1 = 0.7996	914.11	–
303.15 K, x1 = 0.8015	–	5.69
303.15 K, x1 = 0.9015	943.66	–
303.15 K, x1 = 0.9058	–	6.55
303.15 K, x1 = 0.9494	–	6.96
303.15 K, x1 = 0.9509	958.94	–
308.15 K, x1 = 0.0988	–	2.25
308.15 K, x1 = 0.1	754.59	–
308.15 K, x1 = 0.1965	–	2.53
308.15 K, x1 = 0.1987	772.42	–
308.15 K, x1 = 0.2471	–	2.7
308.15 K, x1 = 0.2494	782.08	–
308.15 K, x1 = 0.2992	791.92	–
308.15 K, x1 = 0.307	–	2.91
308.15 K, x1 = 0.3968	812.1	–
308.15 K, x1 = 0.4071	–	3.31
308.15 K, x1 = 0.4983	–	3.73
308.15 K, x1 = 0.5058	836.19	–
308.15 K, x1 = 0.5976	857.76	–
308.15 K, x1 = 0.598	–	4.25
308.15 K, x1 = 0.6938	–	4.83
308.15 K, x1 = 0.6974	882.71	–
308.15 K, x1 = 0.7997	–	5.57
308.15 K, x1 = 0.7998	910.17	–
308.15 K, x1 = 0.9018	–	6.41
308.15 K, x1 = 0.9025	939.96	–
308.15 K, x1 = 0.9501	–	6.86
308.15 K, x1 = 0.9512	955.04	–
318.15 K, x1 = 0.0976	746.77	–
318.15 K, x1 = 0.0989	–	2.23
318.15 K, x1 = 0.1979	764.58	–
318.15 K, x1 = 0.2	–	2.51
318.15 K, x1 = 0.248	773.96	–
318.15 K, x1 = 0.249	–	2.66
318.15 K, x1 = 0.297	–	2.82
318.15 K, x1 = 0.3015	784.34	–
318.15 K, x1 = 0.3929	–	3.18
318.15 K, x1 = 0.4004	804.52	–
318.15 K, x1 = 0.5013	826.47	–
318.15 K, x1 = 0.5026	–	3.66
318.15 K, x1 = 0.6015	–	4.16
318.15 K, x1 = 0.6035	850.21	–
318.15 K, x1 = 0.6959	873.06	–
318.15 K, x1 = 0.7035	–	4.76
318.15 K, x1 = 0.7956	899.51	–
318.15 K, x1 = 0.7989	–	5.4
318.15 K, x1 = 0.9004	–	6.19
318.15 K, x1 = 0.9025	930.16	–
318.15 K, x1 = 0.949	944.39	–
318.15 K, x1 = 0.9505	–	6.62
328.15 K, x1 = 0.0988	–	2.23
328.15 K, x1 = 0.0996	739.48	–
328.15 K, x1 = 0.1986	–	2.49
328.15 K, x1 = 0.208	758.56	–
328.15 K, x1 = 0.2483	–	2.62
328.15 K, x1 = 0.2561	767.51	–
328.15 K, x1 = 0.3036	776.66	–
328.15 K, x1 = 0.3062	–	2.81
328.15 K, x1 = 0.3961	–	3.14
328.15 K, x1 = 0.3988	795.88	–
328.15 K, x1 = 0.4898	815.4	–
328.15 K, x1 = 0.4986	–	3.56
328.15 K, x1 = 0.596	–	4.03
328.15 K, x1 = 0.5972	839.96	–
328.15 K, x1 = 0.6906	862.83	–
328.15 K, x1 = 0.6969	–	4.61
328.15 K, x1 = 0.7914	–	5.22
328.15 K, x1 = 0.8023	892.19	–
328.15 K, x1 = 0.8935	–	5.99
328.15 K, x1 = 0.8988	919.73	–
328.15 K, x1 = 0.9494	–	6.44
328.15 K, x1 = 0.9518	935.78	–
